What was measured:
[1] = tested on: rabbit gastric lipase (RGL) followed by porcine pancreatic lipase (PPL); assay: Sequential in vitro digestion in simulated gastric fluid (SGF) followed by simulated intestinal fluid (SIF), pH-stat
[2] = tested on: porcine pancreatic lipase (PPL); conditions: pig, 3 h, pH 11.5
Text: Because many fatty acids are only partially ionised at pH 6.8, direct titration gives only partial picture of the extent of lipid digestion, instead back titration to pH 11.5 or GC-FAME analysis is required to estimate the full extent of digestion.

Initial lipolysis rate in SIF compartment ([1]; SGF-SIF sequential digestion (90 minutes SGF pH 5.5, then SIF pH 6.8)): 44.1 ± 8.8 µmol/min
Lipolysis by gastric lipase ([1]; indicated by decreased total fatty acid release during SIF after RGL pre-exposure): ~60%
Hydrolysis in the stomach (gastric lipolysis), in words ([1]; simulated gastric compartment): extensive hydrolysis in the stomach
Extent of digestion [2]: 101.5±0.9%
Compound: CCCC(=O)OCC(COC(=O)CCC)OC(=O)CCC [tributyrin]

From patent US20220195332A1, “DIETARY BUTYRATE AND ITS USES” (SOCIETE DES PRODUITS NESTLE S.A., priority 2019, published 2022)
